Experimental findings from US11779625B2, “Composition and application thereof in preparing product for protecting mitochondria” (INFINITUS (CHINA) COMPANY LTD., priority 2021, dated 2023) are described below.

The structures appear in SMILES notation. “Also recorded” adds a separate entry of the source.

In series [1] the test system is Slc25a46−/− mouse embryonic fibroblasts. Kind of series: MTT in-vitro cytotoxicity experiment (cell morphology and viability), Slc25a46−/− cells. The format is cell-based. Particulars: 24 hours; for effect on cell viability/growth (MTT): Slc25a46−/− cells. The procedure: (§1) The MEF cells were derived from wild-type fetal mice (WT) and Slc25a46 homozygous fetal mice (Slc25a46−/−). Pregnant mice were anesthetized and killed, and dissected to obtain mouse embryos, and bodies of fetal mice were obtained, and washed with PBS for 3 times. Clean mouse embryonal tissues were transferred into a culture dish, and cut into pieces, 2 mL of trypsin was added into the tissue pieces, and continuously cut into pieces for several minutes. Then, 5 mL of trypsin was added into the culture dish above, and blown up and down with a straw vigorously, and the culture dish was put into an incubator for incubation for 20 minutes to 30 minutes. The tissues cut into pieces were taken out of the incubator, and added with about 20 mL of MEF medium. A tissue mixture was transferred into each flask and placed into an incubator for overnight incubation. Then, growth of fibroblasts was observed regularly and the culture medium was replaced. When the fibroblasts covered 90% of the culture flask, the mouse embryonic fibroblasts were collected for subsequent experiment.
(§2) 100 uL of WT mouse cells and Slc25a46−/− mouse cells with a cell concentration of 3.5×10^5 cells/mL were inoculated into a 96-well plate, and cultured in a CO2 incubator at 37° C. for 24 hours. […] An absorbance at 570 nm was detected with a multi-functional microplate scanner, and effects of test solutions with different concentrations on cell viability were calculated with a blank control as 100%.

The subject of series [2] is WT mouse embryonic fibroblasts. Kind of series: MTT in-vitro cytotoxicity experiment (cell morphology and viability), WT cells. The format is cell-based. Particulars: 24 hours; for effect on cell viability/growth (MTT): WT cells. The procedure: as §1, §2
For series [3], the system named is Slc25a46−/− mice. Description: SOD enzyme activity in liver tissues after intragastric intervention. The format is in vivo, mouse. Particulars: intragastric every day for 10 days, Example 400, Comparative example 1 100, 2 244, 3 56, 4 500 mg/kg. The procedure:
Animal experimental subjects were Slc25a46 knockout (Slc25a46−/−) mice of 1 month old, which were divided into a blank solvent control group (3 mice) and experimental groups (4 mice in each group). Under a same SPF level, the mice were fed with a full-nutrient feed prepared according to an AIN93G formula of Jiangsu Xietong Biology Co., Ltd., and subjected to intragastric administration every day, which lasted for a period of 10 days. […] The blank solvent control group was administered intragastrically with solvent water. After the intragastric administration experiment, brain tissues and liver tissues of the mice were collected for physiological and biochemical detections respectively, and an oxidative stress level and an ability of delaying aging were analyzed.
9 times volume of ice normal saline was added according to a ratio of a tissue weight (g) to a tissue volume (ml) of 1:9, and the tissues were cut into pieces with a surgical scissor, prepared into 10% tissue homogenate with a homogenizer (the homogenation lasted 10 seconds once, and was continuously carried out for 3 times to 5 times at intervals of 5 seconds on ice), and centrifuged at 2500 rpm to 3000 rpm for 10 minutes. A supernatant was taken for subsequent determination. […]

For series [4], the system named is Slc25a46−/− mice. Kind of series: NAMPT enzyme activity in liver tissues (ELISA kit). The format is in vivo, mouse. Particulars: intragastric every day for 10 days, Example 400, Comparative example 1 100, 2 244, 3 56, 4 500 mg/kg. For orientation: ELISA stands for enzyme-linked immunosorbent assay.
Protocol: A certain amount of liver tissues of the mice were homogenized, and a supernatant was taken. […] Marker wells, blank wells and sample wells were provided, 50 μL of markers with different concentrations were added into the marker wells, 50 μL of to-be-tested sample was added into the sample wells, and 50 μL of sample diluent was added into the blank wells. […] 50 μL of substrate A and 50 μL of substrate B were respectively added into each well, and an OD value of each well at a wavelength of 450 nm was measured within 15 minutes. Data was recorded, and statistical analysis was made with Prism software.
Where [5] appears, read: high concentration (1,000 μg/mL to 2,000 μg/mL).

Turning to `NC(=O)c1cccnc1` [Comparative example 4, nicotinamide], the “effect on cell morphology” value in series [1] (Slc25a46−/− MEF cells, up to 2,000 μg/mL) is on record as “no effect on the cell morphology”; in series [2] (WT MEF cells, up to 2,000 μg/mL), “no effect on the cell morphology”. The “effect on cell viability/growth (MTT)” value was “no effect on the viability of the Slc25a46−/− cells and a viability of the WT cells” in series [1] (125 μg/mL to 2,000 μg/mL); “promotes growth of the Slc25a46−/− cells and the WT cells, without a concentration effect” in series [1] (setting [5]); “no effect on the viability of the Slc25a46−/− cells and a viability of the WT cells” in series [2] (125 μg/mL to 2,000 μg/mL); “promotes growth of the Slc25a46−/− cells and the WT cells, without a concentration effect; also recorded: promote proliferation of the WT cells” in series [2] (setting [5]). The “SOD enzyme activity-Liver tissue” value in the series on Slc25a46−/− mice [3] was determined as 2.22 ± 0.02 U/mgprot. In addition, the “NAMPT enzyme activity-Liver tissue” value in the series on Slc25a46−/− mice [4] came out at 0.32 ± 0.01 ng/mg protein.
